Experimental data reported in patent US20080153891A1, “SYNERGISTIC ANTI-CANCER COMPOSITIONS” (The Arizona Board of Regents, priority 2003, published 2008).

Assays:
[1] = system: A375 cells; test: Combination cytotoxicity with imexon, SRB assay, combination index (median-effect); assay type: cell-based, human; conditions: in combination with imexon at fixed constant ratio, 5 days after drugging, classified by combination index
[2] = system: 8226/s cells; test: Combination cytotoxicity with imexon, MTT assay, combination index (median-effect); assay type: cell-based, human; conditions: in combination with imexon at fixed constant ratio, 5 days after drugging, classified by combination index
[3] = Toxicology study in non-tumor bearing (normal) mice
Method: A toxicology study was performed in non-tumor bearing (i.e., normal) mice given imexon (100 mg/kg/day×9 days) with either gemcitabine (180 mg/kg days 1, 5 and 9) or cytarabine (800 mg/kg days 1, 4 and 7). The tests were conducted to evaluate whether there was increased bone marrow toxicity or decreased renal and hepatic function for imexon combined with either agent.

Row | Structure (SMILES) | Effect of second antineoplastic agent in combination with imexon, A375 CELL LINE [1] | Effect of second antineoplastic agent in combination with imexon, 8226/S CELL LINE [2] | Mean Platelet Counts (SD), Day 10 ([3]; Day 10, imexon 100 mg/kg days 1-9, cytarabine 800 mg/kg days 1, 4, 7, gemcitabine 180 mg/kg days 1, 5, 9) | Mean Platelet Counts (SD), Day 12 ([3]; Day 12, imexon 100 mg/kg days 1-9, cytarabine 800 mg/kg days 1, 4, 7, gemcitabine 180 mg/kg days 1, 5, 9) | number of red blood cells ([3]; imexon 100 mg/kg/day x 9 days)
1 | O=c1[nH]cc(F)c(=O)[nH]1 [5-fluorouracil] | Synergistic (Where the combination index is less than 1, synergism is indicated) | Synergistic (Where the combination index is less than 1, synergism is indicated) |  |  | 
2 | N=C1NC(=O)N2CC12 (stereo not shown) [Imexon, 4-imino-1,3-diazabicyclo[3.1.0]-hexan-2-one] |  |  | 880 (180) × 1000/μL | 920 (138) × 1000/μL | increased slightly
3 | N.N.[Cl][Pt][Cl] [cisplatin] | Synergistic (Where the combination index is less than 1, synergism is indicated) | Synergistic (Where the combination index is less than 1, synergism is indicated) |  |  | 
4 | Nc1ccn([C@@H]2O[C@H](CO)[C@@H](O)[C@@H]2O)c(=O)n1 [cytarabine] | Synergistic (Where the combination index is less than 1, synergism is indicated) | Synergistic (Where the combination index is less than 1, synergism is indicated) |  |  | 
5 | CN(C)/N=N/c1[nH]cnc1C(N)=O [dacarbazine (DTIC), dacarbazine] | Synergistic (Where the combination index is less than 1, synergism is indicated) | Synergistic (Where the combination index is less than 1, synergism is indicated) |  |  | 
6 | C[C@@H]1C[C@H]2[C@@H]3CCC4=CC(=O)C=C[C@]4(C)[C@@]3(F)[C@@H](O)C[C@]2(C)[C@@]1(O)C(=O)CO [dexamethasone] | Additive (Where the combination index is equal to 1, summation (also commonly referred to as additivity) is indicated) | Antagonistic (Where the combination index is greater than 1, antagonism is indicated) |  |  | 
7 | COc1cccc2c1C(=O)c1c(O)c3c(c(O)c1C2=O)C[C@@](O)(C(=O)CO)C[C@@H]3O[C@H]1C[C@H](N)[C@H](O)[C@H](C)O1 [doxorubicin] | Antagonistic (Where the combination index is greater than 1, antagonism is indicated) | Antagonistic (Where the combination index is greater than 1, antagonism is indicated) |  |  | 
8 | Nc1ccn([C@@H]2O[C@H](CO)[C@@H](O)C2(F)F)c(=O)n1 [gemcitabine] | Synergistic (Where the combination index is less than 1, synergism is indicated) | Synergistic (Where the combination index is less than 1, synergism is indicated) |  |  | 
9 | CN(Cc1cnc2nc(N)nc(N)c2n1)c1ccc(C(=O)N[C@@H](CCC(=O)O)C(=O)O)cc1 [methotrexate] | Antagonistic (Where the combination index is greater than 1, antagonism is indicated) | Antagonistic (Where the combination index is greater than 1, antagonism is indicated) |  |  | 
10 | CC(=O)O[C@H]1C(=O)[C@@]2(C)[C@H]([C@H](OC(=O)c3ccccc3)[C@]3(O)C[C@H](OC(=O)[C@H](O)[C@@H](NC(=O)c4ccccc4)c4ccccc4)C(C)=C1C3(C)C)[C@]1(OC(C)=O)CO[C@@H]1C[C@@H]2O [paclitaxel] | Additive (Where the combination index is equal to 1, summation (also commonly referred to as additivity) is indicated) | Antagonistic (Where the combination index is greater than 1, antagonism is indicated) |  |  | 
11 | CC(=O)O[C@@]12CO[C@@H]1C[C@H](O)[C@@]1(C)C(=O)[C@H](O)C3=C(C)[C@@H](OC(=O)[C@H](O)[C@@H](NC(=O)OC(C)(C)C)c4ccccc4)C[C@@](O)([C@@H](OC(=O)c4ccccc4)[C@H]21)C3(C)C [taxotere, docetaxel] | Synergistic (Where the combination index is less than 1, synergism is indicated) | Synergistic (Where the combination index is less than 1, synergism is indicated) |  |  | 
12 | CCC1=C[C@@H]2CN(C1)Cc1c([nH]c3ccccc13)[C@@](C(=O)OC)(c1cc3c(cc1OC)N(C)[C@H]1[C@@](O)(C(=O)OC)[C@H](OC(C)=O)[C@]4(CC)C=CCN5CC[C@]31[C@@H]54)C2 [vinorelbine] | Additive (Where the combination index is equal to 1, summation (also commonly referred to as additivity) is indicated) | Additive (Where the combination index is equal to 1, summation (also commonly referred to as additivity) is indicated) |  |  | 
